# Laboratory results published in patent publication US11806386B2, “Type I diabetes therapy” (St. Vincent's Institute of Medical Research, priority 2017, dated 2023).
# Columns and labels:
# diabetes in TIP2 mice = details: combination therapy: TIP2 mice expressing proinsulin plus 10 mg/kg twice daily oral from 12 to 14 weeks of age (cohort 3); p<0.005
# Procedure: Mice were monitored for 30 weeks (210 days). […] Diabetes incidence curves compared using Log-Rank (Mantel-Cox) test.
# Removal of doxycycline allowed the maximal recovery of proinsulin expression by 12 weeks (84 days) of age.
# Mice receiving JAK inhibitor were treated with 10 mg/kg dose twice daily by oral gavage from 12 to 14 weeks (day 84-98) of age. Control mice received the same volume of vehicle by oral gavage.
# Female mice were monitored for diabetes weekly by measurement of urinary glucose levels using Diastix (Bayer). Those suspected of hyperglycaemia had further blood glucose level testing on two consecutive days using ACCU-CHEK Advantage II strips (Roche). Mice with two consecutive blood glucose measurements of greater than or equal to 15 mM were considered diabetic.
# TIP2 mice were administered doxycycline until 8 weeks of age to suppress proinsulin expression. At 12 weeks of age TIP2 mice received JAK inhibitor (combination therapy; cohort 3; FIG. 4A) or vehicle (proinsulin monotherapy; cohort 2).
# [1] = tested on: IGRP-specific CD8+ T cells
# Procedure: IGRP was expressed in TII mice at 10-weeks of age. NOD mice were used as controls without antigen expression. At 13-weeks of age, mice were treated for 2 weeks with vehicle (Veh) or JAK inhibitor (JAKi). Mice were harvested for analysis immediately after treatment (2 week), or after a further 2 or 4 weeks with antigen alone (4 week and 6 week). The number of IGRP-specific CD8+ T cells in the peripheral lymphoid organs (PLO, top panel) or islets (bottom panel) is shown for each time point.
# TII mice received doxycycline until 10-weeks of age. After doxycycline was removed, IGRP was expressed in antigen presenting cells of mice carrying both tetO-IGRP and IEα-tTA transgenes. Mice were treated with 10 mg/kg JAK inhibitor or vehicle between 13-15 w of age for 2 weeks. Mice were analysed at 2 weeks (harvest immediately after stopping JAK inhibitor), 4 weeks (harvest two weeks after stopping JAK inhibitor), and 6 weeks (harvest four weeks after stopping JAK inhibitor). Data is from 1-3 experiments per time point with 3-4 mice per group/experiment.
# Cells were washed then stained with anti-PE MicroBeads (Miltenyi Biotec) and magnetically separated using an AutoMACSpro (Miltenyi Biotec).
# Fluorescent-labelled monoclonal antibodies specific for CD4 (GK1.5) bound to APC-Cy7, CD8 (53-6.7) bound to FITC, CD3 (500A2) bound to AmCyan, CD44 (IM7) bound to Alexa Fluor 700, and CD11 b (M1/70), CD11c (N418) and Ly6G (RB6-8C5) bound to Pacific Blue were used to stain magnetically sorted cells. Analysis was performed using FACSFortessa (BD Bioscience) and FlowJo software (TreeStar). Single cells were gated on forward and side scatter, and dead cells excluded using propidium iodide. CD11 b^− CD11c^− Ly6G^− CD3^+ CD8^+ cells were gated as the target population for analysis of IGRP tetramer-positive T cells.
# other JAK-family kinases = details: cited from earlier work
# JAK2 = JAK2 (Homo sapiens, UniProt O60674); details: cited from earlier work
# Chain of JAK2 (O60674 whole entry, species assumed): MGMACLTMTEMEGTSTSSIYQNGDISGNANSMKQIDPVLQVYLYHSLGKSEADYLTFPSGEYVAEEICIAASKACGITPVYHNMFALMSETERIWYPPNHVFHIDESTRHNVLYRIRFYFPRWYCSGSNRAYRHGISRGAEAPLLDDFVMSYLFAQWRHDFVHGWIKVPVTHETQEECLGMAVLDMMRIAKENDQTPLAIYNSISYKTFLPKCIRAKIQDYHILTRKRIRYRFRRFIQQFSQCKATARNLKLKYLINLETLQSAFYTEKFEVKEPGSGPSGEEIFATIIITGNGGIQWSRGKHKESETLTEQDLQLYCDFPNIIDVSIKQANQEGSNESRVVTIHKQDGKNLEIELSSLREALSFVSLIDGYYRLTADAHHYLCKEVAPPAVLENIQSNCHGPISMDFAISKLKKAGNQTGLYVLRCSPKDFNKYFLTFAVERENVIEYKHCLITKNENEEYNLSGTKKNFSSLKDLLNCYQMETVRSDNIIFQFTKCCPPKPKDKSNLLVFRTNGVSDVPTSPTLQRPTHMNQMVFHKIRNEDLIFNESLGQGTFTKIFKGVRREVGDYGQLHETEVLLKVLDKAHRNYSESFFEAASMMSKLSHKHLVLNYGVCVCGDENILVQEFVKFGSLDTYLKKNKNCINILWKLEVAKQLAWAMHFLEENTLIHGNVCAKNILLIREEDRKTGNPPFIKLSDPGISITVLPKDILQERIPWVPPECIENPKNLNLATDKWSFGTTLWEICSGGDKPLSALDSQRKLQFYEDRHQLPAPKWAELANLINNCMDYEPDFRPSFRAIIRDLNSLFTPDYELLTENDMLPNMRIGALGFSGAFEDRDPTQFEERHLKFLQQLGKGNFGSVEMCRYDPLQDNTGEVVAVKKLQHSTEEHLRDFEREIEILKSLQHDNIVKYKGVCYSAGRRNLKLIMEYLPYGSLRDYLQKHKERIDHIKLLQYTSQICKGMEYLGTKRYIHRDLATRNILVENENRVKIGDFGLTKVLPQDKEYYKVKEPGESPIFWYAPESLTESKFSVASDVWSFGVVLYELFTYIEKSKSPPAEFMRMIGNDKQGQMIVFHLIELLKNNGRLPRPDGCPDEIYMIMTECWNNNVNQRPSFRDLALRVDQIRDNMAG
# [2] = tested on: JAK/STAT signalling (p-STAT1); test: IFNγ-mediated STAT1 phosphorylation in peripheral blood stimulated ex vivo after oral dosing (Western blot); design: species or system NOD mice; details: 80 mg/kg daily oral gavage from 2 to 4 weeks of age; blood taken 2 h after last dose, 100 U/mL IFNγ ex vivo; p=0.01
# Procedure: (A) NOD mice received 80 mg/kg ruxolitinib (n=5) or vehicle (n=5) daily by oral gavage from 2 to 4 weeks of age. Two hours after last dose of ruxolitinib or vehicle, peripheral blood was stimulated with 100 U/mL IFNγ ex vivo and analysed by Western blot for IFNγ-mediated phosphorylation of STAT1 and housekeeping protein β-actin. The intensity of p-STAT1 as a ratio of β-actin in arbitrary units (mean±SEM) was used to measure p-STAT1. p=0.01 using two-tailed unpaired t test.
# The JAK1/JAK2 inhibitor ruxolitinib was purchased from Chemietek (USA). […] Mice receiving JAK inhibitor were treated with 80 mg/kg ruxolitinib daily by oral gavage from 2 to 4 weeks of age. Control mice received the same volume of vehicle by oral gavage.
# Peripheral whole blood was stimulated with 100 U/mL IFN-γ (Biolegend) for 30 min at 37° C. […] Samples were further treated with radioimmunoprecipitation assay buffer (R0278, Sigma), sample buffer (10% SDS, 30% glycerol, 0.02% bromophenol blue in 250 mM Tris-HCl, pH 6.8) and β-mercaptoethanol. Near-infrared fluorescent western blotting was performed using anti-p-STAT1 antibody (BD Biosciences), normalized to β-actin (Santa Cruz Biotechnology) and scanned on an Odyssey CLx imager.
# At 4 weeks of age, two hours after the last oral gavage of 80 mg/kg ruxolitinib or vehicle, peripheral blood and islets were harvested from NOD mice.
smiles,measurement,setting,value
CC(C)(C)c1nc2c3cc[nH]c(=O)c3c3cc(F)ccc3c2[nH]1 [JAK inhibitor],protection from diabetes at 30 weeks of age (210 days),diabetes in TIP2 mice,significantly protected from diabetes
same,IGRP specific memory T cells 2 weeks after cessation of treatment,[1]; NOD mice without antigen expression (NOD-JAKi),returned
same,IGRP specific memory T cells in PLO and in islets immediately after 2 weeks of treatment,"[1]; TII mice expressing IGRP from 10 weeks, 10 mg/kg for 2 weeks, TII-Veh vs TII-JAKi",decrease
same,IGRP specific memory T cell numbers after cessation of treatment,"[1]; TII mice with antigen expression (TII-JAKi), islets at 6 weeks p=0.02, PLO p=0.054",remained low
C[C@H](Nc1cc(-c2cnn(C)c2)cc(Nc2cnccn2)n1)c1ccc(F)cc1 [NS018],selectivity for JAK2 over other JAK-family kinases,other JAK-family kinases,30-50 fold
same,IC50,JAK2,< 1 nM
N#CC[C@H](C1CCCC1)n1cc(-c2ncnc3[nH]ccc23)cn1 [ruxolitinib],reduction of STAT1 phosphorylation compared to vehicle-treated NOD mice,[2],greater than 50%
